What was measured:
Details in all cases: 72 h
Calu-3 [1] = assay: drug sensitivity score (DSS) for viability; higher = more toxic; extreme values may be limits of the assay
Vero E6 [2] = assay: as above
Caco-2 [3] = assay: as above
U2OS [4] = assay: as above
HepG2 [5] = assay: as above
Vero E6 [6] = assay: relative viability EC50 (midpoint between 100% and the lowest measured viability); higher = less toxic
Caco-2 [7] = assay: as above
U2OS [8] = assay: as above
HepG2 [9] = assay: as above
Calu-3 [10] = assay: cell viability relative to DMSO; higher = less toxic
Vero E6 [11] = assay: as above
Caco-2 [12] = assay: as above
U2OS [13] = assay: as above
HepG2 [14] = assay: as above
Calu-3 [15] = assay: relative viability EC50 (midpoint between 100% and the lowest measured viability); higher = less toxic

| SMILES | drug sensitivity score (Calu-3 [1]) | drug sensitivity score (Vero E6 [2]) | drug sensitivity score (Caco-2 [3]) | drug sensitivity score (U2OS [4]) | drug sensitivity score (HepG2 [5]) | relative viability EC50 (Vero E6 [6]) | relative viability EC50 (Caco-2 [7]) | relative viability EC50 (U2OS [8]) | relative viability EC50 (HepG2 [9]) | cell viability (Calu-3 [10]; 1 nM) | cell viability (Calu-3 [10]; 10 nM) | cell viability (Calu-3 [10]; 100 nM) | cell viability (Calu-3 [10]; 1000 nM) | cell viability (Calu-3 [10]; 10000 nM) | cell viability (Vero E6 [11]; 1 nM) | cell viability (Vero E6 [11]; 10 nM) | cell viability (Vero E6 [11]; 100 nM) | cell viability (Vero E6 [11]; 1000 nM) | cell viability (Vero E6 [11]; 10000 nM) | cell viability (Caco-2 [12]; 1 nM) | cell viability (Caco-2 [12]; 10 nM) | cell viability (Caco-2 [12]; 100 nM) | cell viability (Caco-2 [12]; 1000 nM) | cell viability (Caco-2 [12]; 10000 nM) | cell viability (U2OS [13]; 1 nM) | cell viability (U2OS [13]; 10 nM) | cell viability (U2OS [13]; 100 nM) | cell viability (U2OS [13]; 1000 nM) | cell viability (U2OS [13]; 10000 nM) | cell viability (HepG2 [14]; 1 nM) | cell viability (HepG2 [14]; 10 nM) | cell viability (HepG2 [14]; 100 nM) | cell viability (HepG2 [14]; 1000 nM) | cell viability (HepG2 [14]; 10000 nM) | relative viability EC50 (Calu-3 [15]) |
| --- | --- | --- | --- | --- | --- | --- | --- | --- | --- | --- | --- | --- | --- | --- | --- | --- | --- | --- | --- | --- | --- | --- | --- | --- | --- | --- | --- | --- | --- | --- | --- | --- | --- | --- | --- |
| O=C(CCCCCCC(=O)NO)NO [SBHA] | 2.4 | 0.4 | 0.2 | 0.7 | 3.6 | > 10 µM | > 10 µM | > 10 µM | 2270 nM | 104% | 95.9% | 86.4% | 90.1% | 72.6% | 106% | 99.8% | 99.6% | 102% | 80.4% | 95.6% | 99.4% | 109% | 98.1% | 86.7% | 104% | 96.3% | 100% | 98.2% | 81.7% | 104% | 96.9% | 105% | 94.4% | 48.7% |  |
| CCn1cc(-c2ccnc3[nH]c(-c4cccc(CN(C)C)c4)cc23)c(-c2ccc(NC(=O)N(C)C)cc2)n1 | 0.6 | 3.8 | 3.4 |  | 8.1 |  |  |  | 1190 nM | 97.8% | 110% | 81.9% | 97.7% | 81.9% | 103% | 104% | 98.5% | 82% | 63.5% | 96.3% | 95.7% | 98% | 93.1% | 56.2% |  |  |  |  |  | 106% | 105% | 77.8% | 72.3% | 20.1% | > 10 µM |
| NS(=O)(=O)OC[C@@H]1C[C@@H](n2ccc3c(N[C@H]4CCc5ccccc54)ncnc32)C[C@@H]1O [pevonedistat] | 1.6 | 3.9 | 3.1 | 8.8 | 10.3 | 3.45 µM |  | 1.3 µM | 401 nM | 94.9% | 97.2% | 104% | 97.4% | 71.8% | 96.9% | 107% | 103% | 104% | 24.3% | 95.3% | 106% | 87.7% | 92.4% | 60.1% | 98.6% | 98.6% | 101% | 71% | 14.9% | 96.3% | 111% | 77.6% | 58.2% | 32.7% |  |
| O=c1ccn([C@@H]2O[C@H](CO)[C@@H](O)[C@H]2O)c(=O)[nH]1 [uridine] | 0 | 0 |  | 0 | 0.8 |  |  |  |  |  |  |  |  |  |  |  |  |  |  |  |  |  |  |  |  |  |  |  |  |  |  |  |  |  |  |
| c1ccc(C[C@H](c2ccccc2)N2CCCCC2)cc1 (racemic) [1-(1,2-diphenylethyl)piperidine-(+/-)] |  | 0 | 0 | 0 | 0.1 | > 10 µM | > 10 µM | > 10 µM | > 10000 nM |  |  |  |  |  | 92.6% | 97.7% | 92.2% | 97.1% | 102% | 91.2% | 93.9% | 101% | 100% | 103% | 104% | 93.8% | 98.7% | 98.9% | 105% | 92.9% | 103% | 96.5% | 100% | 86.8% |  |
| O=[N+]([O-])c1ccc(O)c([N+](=O)[O-])c1 [2,4-dinitrophenol] |  | 0 | 1.8 | 0 | 0 | > 10 µM |  | > 10 µM | > 10000 nM |  |  |  |  |  | 94% | 103% | 100% | 92.9% | 99.1% | 89.3% | 96.8% | 82.7% | 98.8% | 73.4% | 96.2% | 102% | 106% | 105% | 97% | 100% | 89.5% | 110% | 106% | 103% |  |
| NCC(O)(CS(=O)(=O)O)c1ccc(Cl)cc1 (configuration not stated) [2-hydroxysaclofen] |  | 0 | 0 | 0 | 0.3 | > 10 µM | > 10 µM | > 10 µM | > 10000 nM |  |  |  |  |  | 100% | 98.1% | 102% | 97.2% | 97.5% | 98.4% | 96.2% | 91.4% | 98.6% | 96.3% | 104% | 94.8% | 94.9% | 103% | 97.4% | 101% | 98.5% | 89.4% | 90.3% | 98.8% |  |
| Nc1nc2c(ncn2COC(CO)CO)c(=O)[nH]1 [ganciclovir] | 0 | 0 |  | 0 | 0 |  |  |  |  |  |  |  |  |  |  |  |  |  |  |  |  |  |  |  |  |  |  |  |  |  |  |  |  |  |  |
| COc1cc2ncn(-c3cc(OCc4ccccc4C(F)(F)F)c(C(N)=O)s3)c2cc1OC | 0.5 | 5.9 | 4.9 | 0.1 | 9.9 |  |  | > 10 µM | 743 nM | 95.9% | 101% | 95.4% | 90% | 86.1% | 104% | 96% | 98.8% | 69.1% | 57.5% | 102% | 95.5% | 102% | 73.4% | 62.3% | 102% | 97.8% | 102% | 94.4% | 89.4% | 95.6% | 108% | 105% | 50% | 26.5% | > 10 µM |

Reference: the supplement of paper PMC13380429
